What was measured:
[1] = test system: Tumor 41 (pancreatic tumor); assay: Direct pancreatic cancer derived xenograft, Tumor 41; format: in vivo, mice; conditions: Gemcitabine 100 mg/kg 2 times/week for 4 weeks, ON-01910.Na 250 mg/kg/day for 4 weeks
Source text: (§1) Resected pancreatic adenocarcinomas are routinely implanted in nude mice at the Johns Hopkins Medical Institutions as a method to obtain enriched populations of neoplastic cells under an IRB-approved protocol from residual pancreatic cancer tumors. Briefly, tumor specimens from Whipple resection specimens were divided into 2-3 mm^3 pieces in antibiotic-containing RPMI media. Pieces of non-necrotic tissue were selected and immersed in Matrigel. Under anesthesia with isofluorane, tumors were implanted into five-to-six week-old female athymic (nu/nu) mice purchased from Harlan (Harlan Laboratories, Washington, D.C.). […] Tumor size was determined using calipers every four days for the course of the experiment. Relative tumor growth inhibition (TGI) was calculated as TGI=(Ti−T0/Ci−C0), where Ti and Ci represent tumor size in the treated and control group at 28-day, respectively; […] Experiments were terminated on day 28. […] Pancreatic tumors were implanted in mice as detailed above. Mice were treated with gemcitabine alone, ON-01910-Na alone, or a combination thereof as indicated. Tumor size was measured at four day intervals.

[2] = test system: Tumor 28 (pancreatic tumor); assay: Direct pancreatic cancer derived xenograft, Tumor 28; format: in vivo, mice; conditions: Gemcitabine 100 mg/kg 2 times/week for 4 weeks, ON-01910.Na 250 mg/kg/day for 4 weeks
Source text: as §1

Plk1 = Plk1 expression analysis by RT-PCR in xenograft tumors harvested on day 28; format: in vivo, mice; conditions: JH03 tumor, day 28, compared with the other tumors
Source text: Total RNA was extracted from cell pellets (and tumors) using the RNeasy™ Mini Kit (Qiagen, Valencia, Calif.). cDNA was synthesized using iScript cDNA synthesis kit (Bio-Rad, Hercules, Calif.) following the manufacturer's instructions. Relative quantification of Plk1 and ubiquitin C (UBC, used as housekeeper gene) mRNA was achieved using an iCycler iQ real-time PCR detection system (Bio-Rad) using ABI Taqman probes (Foster City, Calif.). The experiments were repeated twice and samples were run in quadruplicate.
On day 28, animals were euthanized and tumors were removed for Plk1 expression analysis by RT-PCR using standard protocols. Plk1 expression levels were expressed relative to expression in non-drug treated control.
On day 28, tumors were harvested and analyzed for Plk1 expression (FIG. 2C).

[3] = test system: Tumor JH03 (pancreatic tumor); assay: Direct pancreatic cancer derived xenograft, Tumor JH03; format: in vivo, mice; conditions: Gemcitabine 100 mg/kg 2 times/week for 4 weeks, ON-01910.Na 250 mg/kg/day for 4 weeks
Source text: as §1

[4] = test system: Solid tumors including prostate, breast, and lung; conditions: oral; cited from earlier work

Row | Structure (SMILES) | susceptibility of tumor to treatment (tumor growth) [1] | susceptibility of tumor to treatment (tumor growth) [2] | Plk1 expression in tumor after exposure (Plk1) | susceptibility of tumor to treatment (tumor growth) [3] | maximum tolerated dose [4]
1 | Nc1ccn(C2OC(CO)C(O)C2(F)F)c(=O)n1 (centres unmarked) [gemcitabine, 4-amino-1-[3,3-difluoro-4-hydroxy-5-(hydroxymethyl)tetrahydrofuran-2-yl]-1H-pyrimidin-2-one] | susceptible | resistant | lowest expression of Plk1 | susceptible | –
2 | CCCCCCCCCCCCCCCC(=O)Nc1ccn([C@@H]2O[C@H](CO)[C@@H](O)[C@@H]2C#N)c(=O)n1 [sapacitabine] | – | – | – | – | dose 160 mg/m^2/day

Reference: US9545418B2, “ON01910.Na enhances chemotherapeutic agent activity in drug-resistant tumors” (THE JOHNS HOPKINS UNIVERSITY, priority 2008, dated 2017)
